Assay results reported in patent US7166297B2, “Lipid-based drug delivery systems against parasitic infections” (LiPlasome Pharma A/S, priority 2000, dated 2007).

Key:
[1] = system: human red blood cells (RBC); experiment: Hemolysis assay; details: low concentrations, 37° C., 20 hours
Description: Briefly, each sample was serially diluted with phosphate buffered saline (PBS), and 0.5 ml of each dilute suspension was mixed with 0.5 ml washed human red blood cells (RBC) [4% in PBS (v/v)]. Sample and standard were placed in a 37° C. incubator and agitated for 20 hours. Tubes were centrifuged at low speed (2000×G) for 10 minutes and 200 μl of the supernatant was quantitated by absorbance at 550 nm. 100 percent hemolysis was defined as the maximum amount of hemolysis obtained from the detergent Triton X-100.
The lipids were hydrated in phosphate buffered saline (PBS). 1-O-octadecyl-2-O-methyl-sn-glycero-3-phosphocholine (ET-18-OCH3) in PBS was included in the assay as a reference.
Briefly, each sample was serially diluted with PBS, and 0.5 ml of each dilute suspension of 1-O-DPPC liposomes were mixed with 0.5 ml washed human red blood cells (RBC) [4% in PBS (v/v)]. For controls, 0.5 ml of the red blood cell suspension was mixed with either 0.5 ml buffer solution (negative hemolysis control) or 0.5 ml water (positive hemolysis control). Samples and standard were placed in a 37° C. incubator and agitated for 20 hours. Tubes were centrifuged at low speed (2000×G) for 10 minutes to form RBCs pellets. 200 μl of the supernatant was quantified by absorbance at 550 nm using a Perkin-Elmer 320 scanning spectrophotometer. […]

[2] = target: T1, Snake venom PLA2 (Agkistrodon piscivorus piscivorus) (Agkistrodon piscivorus piscivorus, UniProt P51972); experiment: Model system: PLA2-controlled calcein release across D-O-SPC target membrane with DPPC carrier liposomes; assay type: biochemical
T1 construct: Purified snake venom PLA2 (Agkistrodon piscivorus piscivorus) was a generous gift from dr; R. L. Biltonen; tissue gift from dr; host or cells: snake venom of Agkistrodon piscivorus piscivorus
T1 sequence (P51972 1-123): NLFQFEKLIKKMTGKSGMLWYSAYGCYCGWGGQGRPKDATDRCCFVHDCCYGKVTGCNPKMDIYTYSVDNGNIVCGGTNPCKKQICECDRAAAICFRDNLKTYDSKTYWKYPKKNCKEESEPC
Description: The temperature is 37° C. […] The percentage of calcein released is determined as % Release=100 (IF(t)−IB)/(IT−IB), where IF(t) is the measured fluorescence at time t after addition of the enzyme, IB is the background fluorescence, and IT is the total fluorescence measured after addition of Triton X-100 which leads to complete release of calcein by breaking up the target liposomes. […] The concentration of the target and carrier liposomes are 25 μM, and PLA2 is added in a 25 nM concentration in a HEPES buffer with pH=7.5.
The experimental model system consists of a negatively charged liposome carrier and a model target membrane. The carrier is a 100 nm unilamellar liposome made of dipalmitoyl phosphatidylcholine lipids (DPPC) with a small amount (2.5 mol %) of negatively charged lipid of the type dipaimitoyl phosphatidylethanolamine (DPPE)-PEG2000. The target membrane is another liposome made of 1,2-O-dioctadecyl-sn-glycero-phosphatidylcholine (D-O-SPC) which is a phospholipid where the acyl linkages of the stearoyl chains are ether bonds. In contrast to DPPC, D-O-SPC is inert towards PLA2-catalysed hydrolysis thereby mimicking the stability of an intact target cell membrane toward degradation by its own enzymes. […] The permeation of calcein across the D-O-SPC target membrane is subsequently monitored by the increase in fluorescence. […]

[3] = Calcein release across target membrane on adding lyso-phospholipid and fatty acid in the absence of PLA2; details: 25 μM target membranes, pH=7.5, 39° C.
Description: FIG. 13. […] The concentration of the target membranes is 25 μM in a HEPES buffer with pH=7.5 at a temperature of 39° C.
The experimental model system consists of a negatively charged liposome carrier and a model target membrane. The carrier is a 100 nm unilamellar liposome made of dipalmitoyl phosphatidylcholine lipids (DPPC) with a small amount (2.5 mol %) of negatively charged lipid of the type dipaimitoyl phosphatidylethanolamine (DPPE)-PEG2000. The target membrane is another liposome made of 1,2-O-dioctadecyl-sn-glycero-phosphatidylcholine (D-O-SPC) which is a phospholipid where the acyl linkages of the stearoyl chains are ether bonds. In contrast to DPPC, D-O-SPC is inert towards PLA2-catalysed hydrolysis thereby mimicking the stability of an intact target cell membrane toward degradation by its own enzymes. This experimental assay, which permits simultaneous as well as separate investigation of the effect of destabilisers at the carrier liposomes and the effect of enhancers at the target membrane, involves entrapment of a water-soluble fluorescent calcein model drug in a self-quenching concentration, in the interior of the non-hydrolysable target liposome, rather than in the carrier liposome. […] The permeation of calcein across the D-O-SPC target membrane is subsequently monitored by the increase in fluorescence. […]

[4] = target: T2, phospholipase A2 (A. piscivorus piscivorus) (Agkistrodon piscivorus piscivorus, UniProt P51972)
T2 sequence (P51972 1-123): T1 sequence (P51972 1-123)
Description: HPLC chromatograms illustrating the effect of phospholipase A2 hydrolysis of micelles composed DSPE-PEG750 (0.150 mM). The chromatograms show the amount of stearic acid generated before (solid line) phospholipase A2 (A. piscivorus piscivorus) was added to the micelle suspension and the amount (dashed line) of DSPE-PEG750 after the lag-burst. The dotted line show pure stearic acid (0.4 mM). The percentage hydrolysis was calculated on basis of the integrated area of the stearic acid standard (115850 units) and the integrated area of the sample (45630 units).
The hydrolysis of micelles composed DSPE-PEG750 was followed by analysis of the amount of stearic acid generated. The catalytic reaction was initiated by adding 8.9 μL of a 42 μM PLA2 (150 nM) stock solution to 2.5 ml a thermostated lipid suspension of DSPE-PEG750 (0.150 mM) equilibrated at 45° C. for 600 seconds prior to addition of PLA2. The characteristic burst behavior of PLA2 towards the micelles is signaled by a sudden increase in the intrinsic fluorescence from PLA2 at 340 nm after excitation at 285 nm followed by a concomitant decrease in the 90° light scattering from the lipid suspension (Hønger et al., Biochemistry 35, 9003–9006). Samples for HPLC analysis of the amount of stearic acid generated were taken before adding PLA2 and 100 sec after the observed lag-time.

With CCCCCCCCCCCCCCCCCCOC[C@H](COP(=O)([O-])OCC[N+](C)(C)C)OC [ET-18-OCH3] the “hemolysis (in words)” value [1] was “significant degree of hemolysis”.
In the case of CC(C)CCC[C@@H](C)[C@H]1CC[C@H]2[C@@H]3CC=C4C[C@@H](O)CC[C@]4(C)[C@H]3CC[C@]12C [cholesterol], the “effect on extracellular PLA2 activity (in words)” value ([2]; ≈3 mol % incorporated into liposomes) is reported as “activates” and the “effect on extracellular PLA2 activity (in words)” value ([2]; ≈20 mol % incorporated into liposomes, data not shown) is reported as “deactivated”.
In the case of CCCCCCCCCCCCCCCC(=O)O [fatty acid, palmitic acid], the “rate of calcein release across target membrane (in words)” value [3] is reported as “increased rate of calcein release”.
For “di-octadecanoyl-sn-glycero-3-phosphoethanolamine-N-[methoxy(polyethylene glycol)-750 [DSPE-PEG750]”, the “percent hydrolysis of DSPE-PEG750” value ([4]; 0.150 mM DSPE-PEG750, 150 nM PLA2, 45° C.) was 100% and the lag time ([4]; 45° C., 150 nM PLA2) was 10 s.
